The values below are quoted from earlier work in patent US20250177267A1, “A CLEANSING COMPOSITION” (Conopco, Inc., d/b/a UNILEVER, priority 2022, published 2025).

The structures appear in SMILES notation.

For the series the following is noted: prior art acids with pKa greater than 4.5.

The pKa is the pH at which an ionisable group is half protonated. With `CCCCCC(=O)O` [hexanoic acid], the pKa is reported as 4.72.
